{"source": "ChEMBL document CHEMBL1129521", "about": "“Molecular modeling of azole antifungal agents active against Candida albicans. 1. A comparative molecular field analysis study” (1996)", "data": [{"system": "Candida albicans", "test": "In vitro antimycotic activity of compound against Candida albicans was determined as -log MIC90 compound to that of -log MIC90 bifonazole", "format": "functional", "values": [{"smiles": "c1ccc(C(c2ccn(-c3ccccc3)c2)n2ccnc2)cc1", "note": "(stereo unspecified)", "Ratio": 0.6}, {"smiles": "Cn1cc(-c2ccccc2)c(C(c2cccc3ccccc23)n2ccnc2)c1", "note": "(stereo unspecified)", "Ratio": 1.5}, {"smiles": "Cc1ccc(C(c2ccc([N+](=O)[O-])cc2)n2ccnc2)cc1", "note": "(stereo unspecified)", "Ratio": 0.3}, {"smiles": "Cc1ccc(C(c2ccn(-c3ccccc3)c2)n2ccnc2)cc1", "note": "(stereo unspecified)", "Ratio": 0}, {"smiles": "Cn1cc(-c2ccccc2)c(C(c2ccccc2)n2ccnc2)c1", "note": "(stereo unspecified)", "Ratio": 0.6}, {"smiles": "COc1ccc(C(Cc2ccc(Cl)cc2)n2cnnc2)cc1", "note": "(stereo unspecified)", "Ratio": 1.8}, {"smiles": "COc1ccc(C(Cc2ccccc2Cl)n2ccnc2)cc1", "note": "(stereo unspecified)", "Ratio": 1.8}, {"smiles": "Clc1ccc(C(c2ccc(-n3cccc3)cc2)n2ccnc2)cc1", "note": "(stereo unspecified)", "Ratio": 0.3}, {"smiles": "COc1ccc(C(Cc2cccc(-n3cccc3)c2)n2ccnc2)cc1", "note": "(stereo unspecified)", "Ratio": 1.8}, {"smiles": "COc1ccc(C(C(Cc2ccc(Cl)cc2Cl)c2ccc(Cl)cc2)n2cncn2)cc1", "note": "(stereo unspecified)", "Ratio": 1.8}, {"smiles": "COc1ccc(C(Cc2ccccc2[N+](=O)[O-])n2ccnc2)cc1", "note": "(stereo unspecified)", "Ratio": 2.1}, {"smiles": "c1ccc(C(c2ccc(-n3cccc3)cc2)n2ccnc2)cc1", "note": "(stereo unspecified)", "Ratio": 0.6}, {"smiles": "Cc1ccc(-c2cn(Cc3ccc(Cl)cc3Cl)cc2C(c2ccccc2)n2ccnc2)cc1", "note": "(stereo unspecified)", "Ratio": 1.8}, {"smiles": "Cc1ccc(C(c2ccc(NC(=O)c3ccc(Cl)cc3Cl)cc2)n2ccnc2)cc1", "note": "(stereo unspecified)", "Ratio": 0}, {"smiles": "CCC(c1ccc(Cl)cc1)C(c1ccc(OC)cc1)n1cncn1", "note": "(stereo unspecified)", "Ratio": 1.5}, {"smiles": "c1ccc(-c2c[nH]cc2C(c2cccc3ccccc23)n2ccnc2)cc1", "note": "(stereo unspecified)", "Ratio": 0.9}, {"smiles": "Cn1cc(-c2ccc(F)cc2)c(C(c2ccccc2)n2ccnc2)c1", "note": "(stereo unspecified)", "Ratio": 0.6}, {"smiles": "COc1ccc(C(Cc2ccc(Cl)cc2Cl)C(c2ccc(OC)cc2)n2ccnc2)cc1", "note": "(stereo unspecified)", "Ratio": 1.5}, {"smiles": "COc1ccc(C(Cc2ccc(Cl)cc2Cl)n2ccnc2)cc1", "note": "(stereo unspecified)", "Ratio": 0.6}, {"smiles": "COc1ccc(-c2cn(Cc3ccc(Cl)cc3Cl)cc2C(c2ccccc2)n2ccnc2)cc1", "note": "(stereo unspecified)", "Ratio": 1.8}, {"smiles": "Cc1ccc(C(c2ccn(-c3ccc(Cl)cc3)c2)n2ccnc2)cc1", "note": "(stereo unspecified)", "Ratio": 0}, {"smiles": "Cn1cc(-c2ccccc2)c(C(c2ccc3ccccc3c2)n2ccnc2)c1", "note": "(stereo unspecified)", "Ratio": 2.4}, {"smiles": "COc1ccc(CC(c2ccc(OC)cc2)n2cnnc2)cc1", "note": "(stereo unspecified)", "Ratio": 1.8}, {"smiles": "COc1ccc(C(Cc2ccccc2-n2cccc2)n2ccnc2)cc1", "note": "(stereo unspecified)", "Ratio": 0.9}, {"smiles": "O=[N+]([O-])c1ccc(C(c2ccccc2)n2ccnc2)cc1", "note": "(stereo unspecified)", "Ratio": 0.3}, {"smiles": "COc1ccc(C(Cc2cccc(Cl)c2)n2ccnc2)cc1", "note": "(stereo unspecified)", "Ratio": 1.5}, {"smiles": "COc1ccc(C(Cc2ccc(N)cc2)n2ccnc2)cc1", "note": "(stereo unspecified)", "Ratio": 0.3}, {"smiles": "Fc1ccc(-n2ccc(C(c3ccc(Cl)cc3)n3ccnc3)c2)cc1", "note": "(stereo unspecified)", "Ratio": 0.3}, {"smiles": "O=[N+]([O-])c1ccc(C(c2ccc(Cl)cc2)n2ccnc2)cc1", "note": "(stereo unspecified)", "Ratio": 0}, {"smiles": "COc1ccc(C(Cc2ccc(Cl)cc2)n2ccnc2)cc1", "note": "(stereo unspecified)", "Ratio": 0.6}, {"smiles": "Clc1ccc(-n2ccc(C(c3ccccc3)n3ccnc3)c2)cc1", "note": "(stereo unspecified)", "Ratio": 0.3}, {"smiles": "COc1ccc(C(Cc2ccc(Cl)cc2)n2cncn2)cc1", "note": "(stereo unspecified)", "Ratio": 1.5}, {"smiles": "Fc1ccc(C(c2ccn(-c3ccc(F)cc3)c2)n2ccnc2)cc1", "note": "(stereo unspecified)", "Ratio": 0}, {"smiles": "Fc1ccc(C(c2ccn(-c3ccccc3)c2)n2ccnc2)cc1", "note": "(stereo unspecified)", "Ratio": 0.3}, {"smiles": "Clc1ccc(C(c2ccn(-c3ccc(Cl)cc3)c2)n2ccnc2)cc1", "note": "(stereo unspecified)", "Ratio": 0.6}, {"smiles": "Cc1ccc(-c2cn(C)cc2C(c2ccccc2)n2ccnc2)cc1", "note": "(stereo unspecified)", "Ratio": 0.6}, {"smiles": "COc1ccc(C(C(Cc2ccc(Cl)cc2Cl)c2ccc(Cl)cc2)n2ccnc2)cc1", "note": "(stereo unspecified)", "Ratio": 1.2}, {"smiles": "CCC(c1ccc(Cl)cc1)C(c1ccc(OC)cc1)n1cnnc1", "note": "(stereo unspecified)", "Ratio": 1.8}, {"smiles": "Nc1ccc(C(c2ccccc2)n2ccnc2)cc1", "note": "(stereo unspecified)", "Ratio": 0.3}, {"smiles": "Clc1ccc(-c2cn(Cc3ccc(Cl)cc3Cl)cc2C(c2ccccc2)n2ccnc2)cc1", "note": "(stereo unspecified)", "Ratio": 1.8}, {"smiles": "c1ccc(-c2ccc(C(c3ccccc3)n3ccnc3)cc2)cc1", "note": "(stereo unspecified) [BIFONAZOLE]", "Ratio": 0}, {"smiles": "Fc1ccc(-n2ccc(C(c3ccccc3)n3ccnc3)c2)cc1", "note": "(stereo unspecified)", "Ratio": 0.6}, {"smiles": "Clc1ccc(-c2c[nH]cc2C(c2ccccc2)n2ccnc2)cc1", "note": "(stereo unspecified)", "Ratio": 0.3}, {"smiles": "c1ccc(-c2c[nH]cc2C(c2ccc3ccccc3c2)n2ccnc2)cc1", "note": "(stereo unspecified)", "Ratio": 0.9}, {"smiles": "Cc1ccc(C(c2ccc(-n3cccc3)cc2)n2ccnc2)cc1", "note": "(stereo unspecified)", "Ratio": 0.9}, {"smiles": "CCC(c1ccc([N+](=O)[O-])cc1)C(c1ccc(OC)cc1)n1ccnc1", "note": "(stereo unspecified)", "Ratio": 0.9}, {"smiles": "COc1ccc(C(Cc2cccc(F)c2)n2ccnc2)cc1", "note": "(stereo unspecified)", "Ratio": 1.8}, {"smiles": "Cn1cc(-c2ccc(Cl)cc2)c(C(c2ccccc2)n2ccnc2)c1", "note": "(stereo unspecified)", "Ratio": 0}, {"smiles": "Fc1ccc(-c2c[nH]cc2C(c2ccccc2)n2ccnc2)cc1", "note": "(stereo unspecified)", "Ratio": 0}, {"smiles": "COc1ccc(C(Cc2ccc(F)cc2)n2ccnc2)cc1", "note": "(stereo unspecified)", "Ratio": 1.2}, {"smiles": "COc1ccc(C(Cc2ccccc2F)n2ccnc2)cc1", "note": "(stereo unspecified)", "Ratio": 1.8}, {"smiles": "COc1ccc(C(Cc2ccc([N+](=O)[O-])cc2)n2ccnc2)cc1", "note": "(stereo unspecified)", "Ratio": 1.5}, {"smiles": "Clc1ccc(Cn2cc(-c3ccccc3)c(C(c3ccccc3)n3ccnc3)c2)c(Cl)c1", "note": "(stereo unspecified)", "Ratio": 1.5}, {"smiles": "Fc1ccc(C(c2ccn(-c3ccc(Cl)cc3)c2)n2ccnc2)cc1", "note": "(stereo unspecified)", "Ratio": 0.3}, {"smiles": "COc1ccc(CC(c2ccc(OC)cc2)n2ccnc2)cc1", "note": "(stereo unspecified)", "Ratio": 0.9}, {"smiles": "Cc1ccc(C(c2ccn(-c3ccc(F)cc3)c2)n2ccnc2)cc1", "note": "(stereo unspecified)", "Ratio": 0.3}]}]}
